The values that follow come from patent US20100222319A1, “NICOTINAMIDE DERIVATIVES, PREPARATION THEREOF AND THERAPEUTIC USE THEREOF” (SANOFI-AVENTIS, priority 2007, published 2010).

The subject of data set [1] is HCT116 (ATCC-CCL247). Nature of the data set: MTS cell proliferation and viability test on HCT116 tumour line. Particulars: Homo sapiens, HCT-116, incubating the test compound for 72 hours, read-out: IC50 HCT116 (concentration which results in 50% loss of cell proliferation and viability). The class given is cell-based. The protocol: (§1) The compounds described in Table I have formed the subject of pharmacological trials which make it possible to determine the anticancer activity. They were tested in vitro on the following tumour lines: HCT116 (ATCC-CCL247) and PC3 (ATCC-CRL1435). The cell proliferation and viability were determined in a test using 3-(4,5-dimethylthiazol-2-yl)-5-(3-carboxymethoxyphenyl)-2-(4-sulphophenyl)-2H-tetrazolium (MTS) according to Fujishita T. et al., Oncology, 2003, 64(4), 399-406. In this test, the mitochondrial capacity of the living cells to convert MTS to a coloured compound after incubating the test compound for 72 hours is measured. The concentration of compound which results in 50% loss of cell proliferation and viability is recorded as IC50.

Data set [2] relates to PC3 (ATCC-CRL1435). Nature of the data set: MTS cell proliferation and viability test on PC3 tumour line. The class given is cell-based. Particulars: incubating the test compound for 72 hours, read-out: IC50 PC3 (concentration which results in 50% loss of cell proliferation and viability). The protocol: as §1

The term melting point denotes the temperature, or range, at which the solid turns liquid.

On to `CCNc1nc(-c2ccc(NC(=O)NCc3ccc(NC(C)C)nc3)cc2)ccc1C(=O)NCCN1CCCCC1` [Compound 108, 2-Ethylamino-6-{-4-[3-(6-isopropylamino-pyridin-3-ylmethyl)-ureido]-phenyl}-N-(2-piperidin-1-yl-ethyl)-nicotinamide], for which the IC50 came to 271 nM in data set [1] and 345 nM in data set [2].
`CNC(=O)c1ccc(-c2ccc(NC(=O)NCc3cccnc3)cc2)nc1NCCN1CCCCC1` [Compound 17, N-Methyl-2-(2-piperidin-1-yl-ethylamino)-6-[4-(3-pyridin-3-ylmethyl-ureido)-phenyl]-nicotinamide]: the IC50 in data set [1] stood at 294 nM; in data set [2] it was 266 nM.
As to `CNC(=O)c1ccc(-c2ccc(NC(=O)NCc3cccnc3)cc2)nc1N` [Compound 3, 2-Amino-N-methyl-6-[4-(3-pyridin-3-ylmethyl-ureido)-phenyl]-nicotinamide], the melting point lay in the range of 234 to 236 °C.
Turning to `CNC(=O)c1ccc(-c2ccc(NC(=O)NCc3cccnc3)cc2)nc1NC1CC1` [Compound 23, 2-Cyclopropylamino-N-methyl-6-[4-(3-pyridin-3-ylmethyl-ureido)-phenyl]-nicotinamide], the IC50 in data set [1] and in data set [2] was 0.1 nM each time.
In the case of `CCNc1nc(-c2ccc(NC(=O)NCc3cccnc3)cc2)ccc1C(=O)NCCN1CCNCC1` [Compound 5, 2-Ethylamino-N-(2-piperazin-1-yl-ethyl)-6-[4-(3-pyridin-3-ylmethyl-ureido)-phenyl]-nicotinamide], the IC50 is 1.8 nM in data set [1] and 0.8 nM in data set [2].
Turning to `CCNc1nc(-c2ccc(NC(=O)OCc3cccnc3)cc2)ccc1C(=O)NC` [Compound 29, [4-(6-Ethylamino-5-methylcarbamoyl-pyridin-2-yl)-phenyl]-carbamic acid pyridin-3-ylmethyl ester], the melting point fell in the range of 234 to 235 °C.
Compound `CCNc1nc(-c2ccc(NC(=O)NCc3cccnc3)cc2)ccc1C(=O)NC` [Compound 1, 2-Ethylamino-N-methyl-6-[4-(3-pyridin-3-ylmethyl-ureido)-phenyl]-nicotinamide] came in with a melting point of 260 to 263 °C.
Regarding `CCNc1nc(-c2ccc(NC(=O)NCc3ccc(N)nc3)cc2)ccc1C(=O)NC` [Compound 21, 6-{-4-[3-(6-Amino-pyridin-3-ylmethyl)-ureido]-phenyl}-2-ethylamino-N-methyl-nicotinamide], the melting point was in the range of 223 to 226 °C.
In turn, `CNC(=O)c1ccc(-c2ccc(NC(=O)NCc3cccnc3)cc2)nc1Nc1ccccc1` [Compound 22, N-Methyl-2-phenylamino-6-[4-(3-pyridin-3-ylmethyl-ureido)-phenyl]-nicotinamide] showed a melting point of 234 to 236 °C. In data set [1], the IC50 turned out to be 0.1 nM. For the same compound, the IC50 in data set [2] was found to be 0.1 nM.
With `CNC(=O)c1ccc(-c2ccc(NC(=O)NCc3cccnc3)cc2)nc1NCc1ccncc1` [Compound 15, N-Methyl-2-[(pyridin-4-ylmethyl)-amino]-6-[4-(3-pyridin-3-ylmethyl-ureido)-phenyl]-nicotinamide], the melting point was in the range of 218 to 219 °C.
For `CCNc1nc(-c2ccc(NC(=O)/C=C/c3cccnc3)cc2)ccc1C(=O)NCCN(C(C)C)C(C)C` [Compound 74, N-(2-Diisopropylamino-ethyl)-2-ethylamino-6-[4-((E)-3-pyridin-3-yl-acryloylamino)-phenyl]-nicotinamide], the IC50 in data set [1] was found to be 116 nM; in data set [2] it was 21 nM.
`CCNc1cc(-c2ccc(NC(=O)NCc3cccnc3)cc2)ncc1C(=O)NC` [Compound 55, 4-Ethylamino-N-methyl-6-[4-(3-pyridin-3-ylmethyl-ureido)-phenyl]-nicotinamide]: the IC50 in data set [1] is 35 nM; in data set [2] it was 45 nM.
Take `CNC(=O)c1ccc(-c2ccc(NC(=O)NCc3cccnc3)cc2)nc1NCc1cccnc1` [Compound 12, N-Methyl-2-[(pyridin-3-ylmethyl)-amino]-6-[4-(3-pyridin-3-ylmethyl-ureido)-phenyl]-nicotinamide]: the IC50 turned out to be 19 nM in data set [1] and 113 nM in data set [2].
`CCN(CC)c1nc(-c2ccc(NC(=O)NCc3cccnc3)cc2)ccc1C(=O)NC` [Compound 25, 2-Diethylamino-N-methyl-6-[4-(3-pyridin-3-ylmethyl-ureido)-phenyl]-nicotinamide]: the IC50 in data set [1] came out at 2.2 nM; in data set [2], 1.7 nM.
`CCNc1nc(-c2ccc(NC(=O)NCc3ccc(N)nc3)cc2)ccc1C(=O)NCCN1CCCCC1` [Compound 81, 6-{-4-[3-(6-Amino-pyridin-3-ylmethyl)-ureido]-phenyl}-2-ethylamino-N-(2-piperidin-1-yl-ethyl)-nicotinamide]: the IC50 in data set [1] and in data set [2] was 0.1 nM throughout.
Take `CCNc1nc(-c2ccc(NC(=O)NCc3cccnc3)cc2)ccc1C(=O)NCCN1CCCCC1` [Compound 13, 2-Ethylamino-N-(2-piperidin-1-yl-ethyl)-6-[4-(3-pyridin-3-ylmethyl-ureido)-phenyl]-nicotinamide]: the melting point fell in the range of 164 to 165 °C. The IC50 in data set [1] is 0.1 nM. The IC50 in data set [2] turned out to be 0.2 nM.
Regarding `CCNc1nc(-c2ccc(NC(=O)NCc3cccnc3)cc2)ccc1C(=O)NCCN(C(C)C)C(C)C` [Compound 8, N-(2-Diisopropylamino-ethyl)-2-ethylamino-6-[4-(3-pyridin-3-ylmethyl-ureido)-phenyl]-nicotinamide], the melting point fell in the range of 160 to 162 °C.
As to `CNC(=O)c1ccc(-c2ccc(NC(=O)NCc3cccnc3)cc2)nc1N1CCCC1` [Compound 49, N-Methyl-6-[4-(3-pyridin-3-ylmethyl-ureido)-phenyl]-2-pyrrolidin-1-yl-nicotinamide], the values for the IC50 in data set [1] and in data set [2] were 331 nM and 316 nM, respectively.
On to `CCNc1nc(-c2ccc(NC(=O)NCc3ccc(N)nc3)cc2)ccc1C(=O)NCCN1C[C@@H](C)O[C@@H](C)C1` [Compound 114, 6-{-4-[3-(6-Amino-pyridin-3-ylmethyl)-ureido]-phenyl}-N-[2-(cis-2,6-dimethyl-morpholin-4-yl)-ethyl]-2-ethylamino-nicotinamide], for which the IC50 in data set [1] and in data set [2] was 0.1 nM each time.
For `CCNc1nc(-c2ccc(NC(=O)NCc3cccnc3)cc2)ccc1C(=O)NCCO` [Compound 26, 2-Ethylamino-N-(2-hydroxy-ethyl)-6-[4-(3-pyridin-3-ylmethyl-ureido)-phenyl]-nicotinamide], the IC50 was determined as 6.3 nM in data set [1] and 4.4 nM in data set [2].
`O=C(NCc1cccnc1)Nc1ccc(-c2ccc(C(=O)NCCN3CCCC3)c(Nc3ccccc3)n2)cc1` [Compound 33, 2-Phenylamino-6-[4-(3-pyridin-3-ylmethyl-ureido)-phenyl]-N-(2-pyrrolidin-1-yl-ethyl)-nicotinamide]: the IC50 was found to be 0.37 nM in data set [1] and 0.3 nM in data set [2].
For `CNC(=O)c1ccc(-c2ccc(NC(=O)NCc3cccnc3)cc2)nc1NCc1ccccc1` [Compound 19, 2-Benzylamino-N-methyl-6-[4-(3-pyridin-3-ylmethyl-ureido)-phenyl]-nicotinamide] the same measures were 34 nM and 28 nM.
On to `CCNc1cc(-c2ccc(NC(=O)NCc3cccnc3)cc2)ccc1C(=O)NC` [Compound 62, 3-Ethylamino-4′-(3-pyridin-3-ylmethyl-ureido)-biphenyl-4-carboxylic acid methylamide], for which the IC50 in data set [1] stood at 2.5 nM; in data set [2] it was 1.2 nM.
For `CCNc1nc(-c2ccc(NC(=O)NCc3ccc(N)nc3)cc2)ccc1C(=O)NCCN1CC[S+]([O-])CC1` [Compound 103, 6-{-4-[3-(6-Amino-pyridin-3-ylmethyl)-ureido]-phenyl}-2-ethylamino-N-[2-(1-oxo-1-thiomorpholin-4-yl)-ethyl]-nicotinamide], the figures for the IC50 in data set [1] and in data set [2] were 1.8 nM and 3 nM, respectively.
In the case of `CCNc1nc(-c2ccc(NC(=O)NCc3cccnc3)cc2)ncc1C(=O)NC` [Compound 47, 4-Ethylamino-2-[4-(3-pyridin-3-ylmethyl-ureido)-phenyl]-pyrimidine-5-carboxylic acid methylamide], the results for the IC50 in data set [1] and in data set [2] were 11 nM and 10 nM, respectively.
Consider `CCNc1nc(-c2ccc(NC(=O)NCc3ccc(NC(=O)C(C)C)nc3)cc2)ccc1C(=O)NCCN1CCCCC1` [Compound 107, 2-Ethylamino-6-{4-[3-(6-isobutyrylamino-pyridin-3-ylmethyl)-ureido]-phenyl}-N-(2-piperidin-1-yl-ethyl)-nicotinamide], for which the IC50 in data set [1] worked out at 221 nM; in data set [2], 105 nM.
`CNC(=O)c1ccc(-c2ccc(NC(=O)NCc3cccnc3)cc2)nc1NCCOC` [Compound 51, 2-(2-Methoxy-ethylamino)-N-methyl-6-[4-(3-pyridin-3-ylmethyl-ureido)-phenyl]-nicotinamide]: the figures for the IC50 in data set [1] and in data set [2] were 77 nM and 78 nM, respectively.
